14 compounds from US12195439B1, “C1-substituted isopropylamine fused heterocyclic mescaline derivatives” (Enveric Biosciences Canada Inc., priority 2022, dated 2025) can be followed below.

For assay [1], the target named is T1, 5-HT1A receptor (Homo sapiens, UniProt P08908).
T1 construct: purchased Perkin Elmer 6110501400UA
T1 sequence (P08908 1-422): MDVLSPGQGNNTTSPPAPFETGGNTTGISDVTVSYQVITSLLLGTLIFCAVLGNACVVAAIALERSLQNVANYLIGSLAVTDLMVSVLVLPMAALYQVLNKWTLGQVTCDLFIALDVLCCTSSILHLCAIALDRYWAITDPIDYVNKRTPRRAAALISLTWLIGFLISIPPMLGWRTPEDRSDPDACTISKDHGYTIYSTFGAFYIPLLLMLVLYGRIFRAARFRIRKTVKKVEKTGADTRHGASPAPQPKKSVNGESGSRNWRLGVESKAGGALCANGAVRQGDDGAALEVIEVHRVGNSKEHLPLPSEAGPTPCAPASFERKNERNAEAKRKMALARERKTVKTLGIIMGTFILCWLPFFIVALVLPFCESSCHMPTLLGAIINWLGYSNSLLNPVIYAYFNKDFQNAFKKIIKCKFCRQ
Briefly: 5-HT1A receptor radioligand competition assay (SPA). The class given is binding. Particulars: 5-HT1A, Ki, competition with 0.5 nM [3H]8-hydroxy-DPAT, membranes containing 5-HT1A. A general note: In a radioligand displacement assay an active substance lowers the binding of a labelled ligand.

For assay [2], the target named is T1, 5-HT1A receptor. Briefly: Eurofins Cerep competition binding assay at 5-HT1A receptor. The settings on record: 10 μM test ligand, [3H]8-OH-DPAT, recombinant receptor from HEK-293 cells; for inhibition at 10 µM: read-out: HT1A, percent of control-specific binding.
The target in another assay is T2, 5-HT2B receptor (Homo sapiens, UniProt P41595).
T2 construct: host or cells: CHO cells (membrane preparation)
Nature of the assay: Eurofins Cerep competition binding assay at 5-HT2B receptor. The settings on record: 10 μM test ligand, [3H]mesulergine, recombinant receptor from CHO cells; for inhibition at 10 µM: read-out: HT2B, percent of control-specific binding.

In the next assay the target is T3, 5-HT2C receptor (Homo sapiens, UniProt P28335).
T3 construct: host or cells: HEK-293 cells (membrane preparation)
T3 sequence (P28335 33-458): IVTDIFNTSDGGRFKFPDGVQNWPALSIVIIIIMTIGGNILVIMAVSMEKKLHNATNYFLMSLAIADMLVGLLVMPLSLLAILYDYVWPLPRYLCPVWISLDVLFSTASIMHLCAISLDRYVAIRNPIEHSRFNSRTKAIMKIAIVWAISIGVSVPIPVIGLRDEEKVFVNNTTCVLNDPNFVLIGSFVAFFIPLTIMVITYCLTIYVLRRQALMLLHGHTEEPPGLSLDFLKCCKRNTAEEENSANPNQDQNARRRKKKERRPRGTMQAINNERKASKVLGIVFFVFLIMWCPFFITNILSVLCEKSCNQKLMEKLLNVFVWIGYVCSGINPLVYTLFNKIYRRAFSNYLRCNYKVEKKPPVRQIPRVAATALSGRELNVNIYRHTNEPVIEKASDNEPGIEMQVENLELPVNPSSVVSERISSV
Nature of the assay: Eurofins Cerep competition binding assay at 5-HT2C receptor. Particulars: 10 μM test ligand, [125I](±)DOI, recombinant receptor from HEK-293 cells; for inhibition at 10 µM: read-out: HT2C, percent of control-specific binding.

The next assay addresses T4, 5-HT7 receptor (Homo sapiens, UniProt P34969).
T4 construct: host or cells: HEK-293 cells (membrane preparation)
Nature of the assay: Eurofins Cerep competition binding assay at 5-HT7 receptor. Particulars: 10 μM test ligand, [3H]LSD, recombinant receptor from HEK-293 cells; for inhibition at 10 µM: read-out: HT7, percent of control-specific binding.

A further assay has as its target T5, alpha2A receptor (Homo sapiens, UniProt P08913).
T5 construct: host or cells: CHO cells (membrane preparation)
T5 sequence (P08913 1-465): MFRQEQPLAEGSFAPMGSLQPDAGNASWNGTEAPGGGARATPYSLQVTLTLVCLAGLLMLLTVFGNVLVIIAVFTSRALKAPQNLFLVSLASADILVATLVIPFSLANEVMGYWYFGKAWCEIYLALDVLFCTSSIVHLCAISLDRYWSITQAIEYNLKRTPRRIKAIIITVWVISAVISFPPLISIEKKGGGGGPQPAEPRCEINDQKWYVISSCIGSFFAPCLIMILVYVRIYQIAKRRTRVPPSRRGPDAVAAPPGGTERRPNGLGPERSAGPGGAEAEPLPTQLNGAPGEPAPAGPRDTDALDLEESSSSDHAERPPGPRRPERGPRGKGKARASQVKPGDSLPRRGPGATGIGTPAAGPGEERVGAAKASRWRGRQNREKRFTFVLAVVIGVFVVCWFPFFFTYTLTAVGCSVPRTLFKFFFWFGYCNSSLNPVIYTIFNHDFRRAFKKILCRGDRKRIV
Briefly: Eurofins Cerep competition binding assay at alpha2A receptor. Particulars: 10 μM test ligand, [3H]RX 821002, recombinant receptor from CHO cells; for inhibition at 10 µM: read-out: α-2A, percent of control-specific binding.

The target of assay [3] is T6, serotonin transporter (SERT) (Homo sapiens, UniProt P31645).
T6 construct: host or cells: CHO cells (membrane preparation)
Briefly: biochemical. The settings on record: for SERT, percent of control-specific binding: 10 µM; for inhibition at 10 µM: read-out: SERT, percent of control-specific binding. The class given is binding.

Assay [4] has as its target T7, dopamine transporter (DAT) (Homo sapiens, UniProt Q01959).
T7 construct: host or cells: CHO cells (membrane preparation)
Nature of the assay: Eurofins Cerep competition binding assay at dopamine transporter. The settings on record: for DAT, percent of control-specific binding: 10 μM test ligand, [3H]BTCP, recombinant transporter from CHO cells; for inhibition at 10 µM: read-out: DAT, percent of control-specific binding, 10 μM test ligand, [3H]BTCP, recombinant transporter from CHO cells.

The next assay deals with T8, MT1 receptor (Homo sapiens, UniProt P48039).
T8 construct: host or cells: CHO cells (membrane preparation)
Briefly: Eurofins Cerep competition binding assay at MT1 receptor. Particulars: for MT1, percent of control-specific binding: 10 μM test ligand, [125I]2-iodomelatonin, recombinant receptor from CHO cells.

Assay [5] deals with T9, norepinephrine transporter (NET) (Homo sapiens, UniProt P23975).
T9 construct: host or cells: CHO cells (membrane preparation)
Briefly: Eurofins Cerep competition binding assay at norepinephrine transporter. Particulars: for NET, percent of control-specific binding: 10 μM test ligand, [3H]nisoxetine, recombinant transporter from CHO cells; for inhibition at 10 µM: read-out: NET, percent of control-specific binding, 10 μM test ligand, [3H]nisoxetine, recombinant transporter from CHO cells.

Where [6] appears, read: read-out: MT1, percent of control-specific binding.
[7] abbreviates: read-out: MT1, percent of control-specific binding, 10 μM test ligand, [125I]2-iodomelatonin, recombinant receptor from CHO cells.

Where two headings read alike, the source gives them in different places. A value given as a limit tells only on which side of the number the result lay.

T9 sequence (P23975 whole entry): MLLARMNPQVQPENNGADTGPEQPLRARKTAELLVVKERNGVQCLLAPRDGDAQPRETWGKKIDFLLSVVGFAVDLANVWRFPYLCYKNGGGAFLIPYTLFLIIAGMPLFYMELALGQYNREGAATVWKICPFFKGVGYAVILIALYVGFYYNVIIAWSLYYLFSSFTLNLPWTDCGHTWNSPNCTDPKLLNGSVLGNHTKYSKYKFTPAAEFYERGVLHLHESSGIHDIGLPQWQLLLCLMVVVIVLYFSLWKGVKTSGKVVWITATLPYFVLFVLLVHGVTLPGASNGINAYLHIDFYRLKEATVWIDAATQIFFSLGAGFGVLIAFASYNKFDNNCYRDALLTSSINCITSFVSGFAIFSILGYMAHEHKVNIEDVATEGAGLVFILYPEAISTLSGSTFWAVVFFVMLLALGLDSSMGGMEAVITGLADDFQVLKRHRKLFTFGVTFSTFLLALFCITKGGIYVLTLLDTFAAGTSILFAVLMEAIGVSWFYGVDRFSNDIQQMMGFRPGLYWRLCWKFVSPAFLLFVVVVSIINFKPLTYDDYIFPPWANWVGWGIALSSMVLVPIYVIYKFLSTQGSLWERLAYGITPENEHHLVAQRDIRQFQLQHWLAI
T4 sequence (P34969 whole entry): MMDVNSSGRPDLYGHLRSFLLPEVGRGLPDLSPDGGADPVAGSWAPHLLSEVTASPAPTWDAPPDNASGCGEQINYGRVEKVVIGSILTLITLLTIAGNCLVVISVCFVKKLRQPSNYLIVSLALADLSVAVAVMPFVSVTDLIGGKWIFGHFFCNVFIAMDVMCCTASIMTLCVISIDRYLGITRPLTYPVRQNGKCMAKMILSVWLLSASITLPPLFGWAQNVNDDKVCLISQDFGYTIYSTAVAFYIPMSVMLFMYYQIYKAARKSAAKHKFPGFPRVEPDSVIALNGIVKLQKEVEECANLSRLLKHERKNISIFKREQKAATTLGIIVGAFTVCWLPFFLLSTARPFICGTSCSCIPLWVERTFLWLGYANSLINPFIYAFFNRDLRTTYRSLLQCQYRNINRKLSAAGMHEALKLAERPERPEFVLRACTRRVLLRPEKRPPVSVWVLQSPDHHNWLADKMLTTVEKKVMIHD
T7 sequence (Q01959 whole entry): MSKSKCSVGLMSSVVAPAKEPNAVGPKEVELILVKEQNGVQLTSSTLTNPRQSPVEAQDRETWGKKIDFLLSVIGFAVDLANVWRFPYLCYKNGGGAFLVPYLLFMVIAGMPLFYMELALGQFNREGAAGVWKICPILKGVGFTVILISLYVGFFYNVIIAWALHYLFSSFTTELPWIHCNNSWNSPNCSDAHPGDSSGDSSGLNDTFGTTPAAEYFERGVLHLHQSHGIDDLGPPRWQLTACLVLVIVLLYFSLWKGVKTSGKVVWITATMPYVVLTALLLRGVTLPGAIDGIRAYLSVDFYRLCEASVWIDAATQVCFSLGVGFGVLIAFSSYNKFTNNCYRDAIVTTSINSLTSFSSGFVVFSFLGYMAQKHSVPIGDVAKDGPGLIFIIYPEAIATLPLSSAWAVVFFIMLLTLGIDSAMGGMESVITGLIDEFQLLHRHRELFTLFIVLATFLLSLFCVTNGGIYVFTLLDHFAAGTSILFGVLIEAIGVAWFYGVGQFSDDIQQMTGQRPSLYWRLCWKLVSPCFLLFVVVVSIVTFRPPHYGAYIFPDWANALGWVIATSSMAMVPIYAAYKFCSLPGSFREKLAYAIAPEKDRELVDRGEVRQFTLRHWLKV
T2 sequence (P41595 whole entry): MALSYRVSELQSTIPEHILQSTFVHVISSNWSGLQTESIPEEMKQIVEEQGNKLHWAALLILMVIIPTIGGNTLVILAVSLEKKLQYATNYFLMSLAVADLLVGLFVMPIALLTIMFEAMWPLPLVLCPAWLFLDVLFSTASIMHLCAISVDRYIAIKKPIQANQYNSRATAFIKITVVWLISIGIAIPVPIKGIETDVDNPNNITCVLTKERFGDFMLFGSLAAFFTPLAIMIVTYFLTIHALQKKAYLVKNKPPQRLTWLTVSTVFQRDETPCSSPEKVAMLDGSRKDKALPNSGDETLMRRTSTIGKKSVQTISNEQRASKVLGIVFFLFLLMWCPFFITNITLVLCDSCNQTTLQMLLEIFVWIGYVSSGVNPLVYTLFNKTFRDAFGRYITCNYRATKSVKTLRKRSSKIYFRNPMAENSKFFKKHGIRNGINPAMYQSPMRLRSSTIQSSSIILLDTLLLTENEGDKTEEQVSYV
T6 sequence (P31645 whole entry): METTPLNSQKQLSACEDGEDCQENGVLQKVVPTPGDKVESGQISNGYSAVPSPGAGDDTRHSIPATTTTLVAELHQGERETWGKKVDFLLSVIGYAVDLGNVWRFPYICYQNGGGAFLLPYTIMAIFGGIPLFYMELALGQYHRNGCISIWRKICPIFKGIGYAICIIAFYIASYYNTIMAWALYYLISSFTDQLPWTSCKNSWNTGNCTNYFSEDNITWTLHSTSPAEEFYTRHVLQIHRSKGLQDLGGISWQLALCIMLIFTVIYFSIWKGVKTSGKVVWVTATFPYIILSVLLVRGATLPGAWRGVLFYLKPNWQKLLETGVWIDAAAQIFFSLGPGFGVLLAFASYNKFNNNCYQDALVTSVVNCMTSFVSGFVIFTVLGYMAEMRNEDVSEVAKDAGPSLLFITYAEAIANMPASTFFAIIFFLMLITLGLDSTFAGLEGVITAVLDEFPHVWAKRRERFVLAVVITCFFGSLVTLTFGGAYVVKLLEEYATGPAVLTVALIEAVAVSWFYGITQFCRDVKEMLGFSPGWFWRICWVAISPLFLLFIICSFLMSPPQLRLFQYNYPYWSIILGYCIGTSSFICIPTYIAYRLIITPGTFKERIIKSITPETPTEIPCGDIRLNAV
T8 sequence (P48039 whole entry): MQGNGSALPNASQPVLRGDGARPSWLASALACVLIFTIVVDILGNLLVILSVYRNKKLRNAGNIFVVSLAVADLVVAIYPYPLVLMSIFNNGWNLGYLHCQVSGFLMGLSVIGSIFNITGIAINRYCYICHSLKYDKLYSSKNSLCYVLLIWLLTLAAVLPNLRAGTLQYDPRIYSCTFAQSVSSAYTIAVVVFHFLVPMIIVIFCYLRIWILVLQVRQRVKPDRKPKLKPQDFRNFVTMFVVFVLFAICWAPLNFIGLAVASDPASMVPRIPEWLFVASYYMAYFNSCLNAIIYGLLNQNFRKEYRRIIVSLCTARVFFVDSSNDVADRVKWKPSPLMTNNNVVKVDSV

As to `CC(C(O)c1ccc2c(c1)OCO2)N(C)Cc1ccccc1` (single isomer, unassigned) [B(III) as diast. (iv)], the Ki (usually a measure of affinity in units of concentration, obtained from inhibition or displacement) on 5-HT1A receptor [1] is 16.9 µM. The “HT1A, percent of control-specific binding” value at 5-HT1A receptor [2] (10 µM) was found to be 22%. Moreover, at 5-HT2B receptor (10 µM), the “HT2B, percent of control-specific binding” value was 28%. The “HT2C, percent of control-specific binding” value at 5-HT2C receptor (10 µM) is 14%. Also, the “HT7, percent of control-specific binding” value on 5-HT7 receptor (10 µM) came out at 23%. In addition, the “α-2A, percent of control-specific binding” value on alpha2A receptor (10 µM) is 42%. The “SERT, percent of control-specific binding” value in assay [3] came to 44%. The “DAT, percent of control-specific binding” value in assay [4] (10 µM) stood at 76%. Further, the “MT1, percent of control-specific binding” value on MT1 receptor (10 µM) is given as 15%. The “NET, percent of control-specific binding” value in assay [5] (10 µM) stood at 25%.

As to `COc1ccc2cccc(CCNC(C)=O)c2c1` [Agomelatine, agomelatine], the inhibition at 10 µM at 5-HT1A receptor [2] is 58%; on 5-HT2B receptor, 93%; on 5-HT2C receptor, 92%; at 5-HT7 receptor it was 20%; at alpha2A receptor, 2%; in [3] it was 30%. Moreover, the inhibition at 10 µM worked out at 1% in assay [4], 99% at MT1 receptor (setting [6]) and 1% in assay [5].

As for `CC(C(O)c1ccc2c(c1)OCO2)N(C)Cc1ccccc1` (stereo not drawn) [B(III) as diast. (iv)], on 5-HT1A receptor [1], the Ki turned out to be 16.9 µM. That is a double-digit micromolar value.

Consider `CC(NC(C)(C)C)C(=O)c1cccc(Cl)c1` (stereo not drawn) [Bupropion, bupropion], for which the inhibition at 10 µM is -1% on 5-HT1A receptor [2]; -2% on 5-HT2B receptor; 1% at 5-HT2C receptor; 4% on 5-HT7 receptor; 2% on alpha2A receptor; 92% in assay [4]. The inhibition at 10 µM on MT1 receptor (setting [7]) turned out to be 83%.

The compound `C[S+](C)[O-]` [DMSO, dimethylsulfoxide] registered a Ki at 5-HT1A receptor [1] above 1000 µM.

Consider `COc1cc(CC(C)N)c(OC)cc1Br` (stereo not drawn) [DOB], for which, at 5-HT1A receptor [2], the “HT1A, percent of control-specific binding” value was 75%. In addition, the “HT2B, percent of control-specific binding” value on 5-HT2B receptor is reported as 97%. Also, the “HT7, percent of control-specific binding” value on 5-HT7 receptor was 65%. Also, on alpha2A receptor, the “α-2A, percent of control-specific binding” value is reported as 66%. Moreover, the “SERT, percent of control-specific binding” value in assay [3] was 53%. In [4], the “DAT, percent of control-specific binding” value is on record as 3%. Besides, the “MT1, percent of control-specific binding” value on MT1 receptor is −3%. In assay [5], the “NET, percent of control-specific binding” value amounted to 6%.

Regarding `CNCC[C@H](Oc1cccc2ccccc12)c1cccs1` [Duloxetine, duloxetine], the inhibition at 10 µM on 5-HT1A receptor [2] turned out to be 95%; on 5-HT2B receptor, 95%; on 5-HT2C receptor, 92%; at alpha2A receptor it was 54%; on MT1 receptor (setting [7]), 23%.

On 5-HT1A receptor [1], `CC(NCc1ccccc1)C(C)c1ccc2c(c1)OCO2` (stereo not drawn) [Ex(VI) as diast. (xi) and (xii)] had a Ki of 65.9 µM.

For `CN(C)CCCN1c2ccccc2CCc2ccccc21` [Imipramine, imipramine], the inhibition at 10 µM at 5-HT1A receptor [2] was determined as 34%; on 5-HT2B receptor, 94%; on 5-HT2C receptor it was 98%; on 5-HT7 receptor, 93%; at alpha2A receptor, 57%; in assay [3], 98%. The inhibition at 10 µM in assay [4] stood at 23%; at MT1 receptor (setting [7]), 29%; in [5], 99%.

Regarding `COc1ccc2[nH]cc(CCNC(C)=O)c2c1` [Melatonin, melatonin], the inhibition at 10 µM on 5-HT1A receptor [2] was 46%; on 5-HT2B receptor it was 52%; at 5-HT2C receptor, 19%; at 5-HT7 receptor it was 8%; at alpha2A receptor, -7%; in [4], 4%. Moreover, the results for the inhibition at 10 µM (on MT1 receptor (setting [6]); in assay [5]) were 98% and -2%, respectively.

On to `O=c1n(CCCN2CCN(c3cccc(Cl)c3)CC2)nc2ccccn12` [Trazodone, trazodone], for which the inhibition at 10 µM came to 97% on 5-HT1A receptor [2]; 97% on 5-HT2B receptor; 93% at 5-HT2C receptor; 99% at 5-HT7 receptor; 91% on alpha2A receptor; 24% in assay [4]. Moreover, the values for the inhibition at 10 µM (at MT1 receptor (setting [7]); in assay [5]) were 14% and -1%, respectively.

As for `N#Cc1ccc2[nH]cc(CCCCN3CCN(c4ccc5oc(C(N)=O)cc5c4)CC3)c2c1` [Vilazodone, vilazodone], the inhibition at 10 µM at 5-HT1A receptor [2] turned out to be 99%; on 5-HT2B receptor it was 96%; on 5-HT2C receptor, 92%; at 5-HT7 receptor it was 83%; on alpha2A receptor, 65%; in assay [3], 100%. Also, the inhibition at 10 µM in assay [4] stood at 98%; at MT1 receptor (setting [7]), 84%; in assay [5], 99%.

Take `NCCc1c[nH]c2ccc(O)cc12` [serotonin]: the inhibition at 10 µM on 5-HT1A receptor [2] was 100%; at 5-HT7 receptor, 100%; at alpha2A receptor, 18%; in [4], 8%; at MT1 receptor (setting [7]), 7%; in assay [5], -3%.

`Cc1ccc(Sc2ccccc2N2CCNCC2)c(C)c1` [vortioxetine]: the inhibition at 10 µM at 5-HT2B receptor worked out at 97%; at 5-HT2C receptor, 99%; on 5-HT7 receptor, 100%; at alpha2A receptor, 62%; in assay [3], 101%; in assay [4], 90%. Moreover, the results for the inhibition at 10 µM (at MT1 receptor (setting [7]); in assay [5]) were 26% and 99%, respectively.
